ChEMBL document CHEMBL4184193, “Design, synthesis, and opioid activity of arodyn analogs cyclized by ring-closing metathesis involving Tyr(allyl)” (Bioorg Med Chem, 2018)
Values belong to the molecule of their own block, whether it stands above or below them. Where a SMILES comes first, the peptide text is derived from it. [ ]: non-standard residue; d: D form.

Assays:
[1] = target: Kappa-type opioid receptor (Rattus norvegicus) (UniProt P34975); assay: Antagonist activity at rat kappa opioid receptor expressed in CHO cell membranes assessed as inhibition of Dyn A-(1-13)NH2-induced [35S]GTPgammaS binding at 10 uM relative to control; type: functional
Chain of Kappa-type opioid receptor (Rattus norvegicus) (P34975 whole entry): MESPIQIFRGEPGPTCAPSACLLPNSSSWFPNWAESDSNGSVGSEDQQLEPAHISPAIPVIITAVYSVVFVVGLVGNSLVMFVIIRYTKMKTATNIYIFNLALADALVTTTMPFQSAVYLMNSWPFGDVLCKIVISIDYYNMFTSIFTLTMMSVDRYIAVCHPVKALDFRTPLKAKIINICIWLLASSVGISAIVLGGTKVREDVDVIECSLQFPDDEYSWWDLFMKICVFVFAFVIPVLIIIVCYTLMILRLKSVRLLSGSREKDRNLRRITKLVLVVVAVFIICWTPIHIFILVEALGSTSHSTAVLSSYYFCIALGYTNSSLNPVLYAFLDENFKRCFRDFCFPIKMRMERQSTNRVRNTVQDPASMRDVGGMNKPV

[2] = target: Kappa-type opioid receptor (Rattus norvegicus) (UniProt P34975); assay: Antagonist activity at rat kappa opioid receptor expressed in CHO cell membranes assessed as inhibition of Dyn A-(1-13)NH2-induced [35S]GTPgammaS binding by schild analysis; type: functional
[3] = target: Delta-type opioid receptor (Rattus norvegicus, UniProt P33533); assay: Displacement of [3H]DPDPE from rat delta opioid receptor expressed in CHO cells after 90 mins by scintillation counting analysis; type: cell-based
Chain of Delta-type opioid receptor (P33533 whole entry): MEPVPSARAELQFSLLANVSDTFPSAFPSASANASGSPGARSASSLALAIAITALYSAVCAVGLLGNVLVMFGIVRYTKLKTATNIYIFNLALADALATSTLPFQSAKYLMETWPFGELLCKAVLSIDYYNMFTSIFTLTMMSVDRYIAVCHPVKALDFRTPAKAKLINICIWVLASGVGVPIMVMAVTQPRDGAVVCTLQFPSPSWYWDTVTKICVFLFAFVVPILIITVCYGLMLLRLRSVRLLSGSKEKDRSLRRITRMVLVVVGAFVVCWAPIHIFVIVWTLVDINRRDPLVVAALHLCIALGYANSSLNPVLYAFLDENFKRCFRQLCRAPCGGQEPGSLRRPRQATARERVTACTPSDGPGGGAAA

SMILES: CC[C@H](C)[C@H](NC(=O)[C@H](CCCNC(=N)N)NC(=O)[C@@H]1C/C=C/COc2ccc(cc2)C[C@H](NC(=O)[C@H](Cc2ccccc2)NC(=O)[C@H](Cc2ccccc2)NC(C)=O)C(=O)N[C@@H](CCCNC(=N)N)C(=O)N1)C(=O)N[C@@H](CCCNC(=N)N)C(=O)N1CCC[C@H]1C(=O)N[C@@H](CCCCN)C(N)=O
- inhibition [1]: 3.3%

SMILES: CC(=O)N[C@@H](Cc1ccccc1)C(=O)N[C@@H](Cc1ccccc1)C(=O)N[C@@H](Cc1ccccc1)C(=O)N[C@@H](CCCN=C(N)N)C(=O)N[C@@H](CC(C)C)C(=O)N[C@@H](CCCN=C(N)N)C(=O)N[C@@H](CCCN=C(N)N)C(=O)N[C@@H](C)C(=O)N[C@@H](CCCN=C(N)N)C(=O)N1CCC[C@H]1C(=O)N[C@@H](CCCCN)C(N)=O (Ac-FFFRLRRARPK-NH2)
- Kb [2]: 17 nM

- Ki [3]: > 5000 nM
SMILES: CC(=O)N[C@@H](Cc1ccccc1)C(=O)N[C@@H](Cc1ccccc1)C(=O)N[C@@H](Cc1ccccc1)C(=O)N[C@@H](CCCNC(=N)N)C(=O)N[C@@H](CC(C)C)C(=O)N[C@@H](CCCNC(=N)N)C(=O)N[C@@H](CCCNC(=N)N)C(=O)N[C@H](C)C(=O)N[C@@H](CCCNC(=N)N)C(=O)N1CCC[C@H]1C(=O)N[C@@H](CCCCN)C(N)=O (Ac-FFFRLRR[dA]RPK-NH2)
